Results as given in the NIST ThermoML archive (doi:10.1016/j.jct.2014.04.012).
Numbers after ± are expanded uncertainties.

Assay: xn = mol fraction of the nth substance listed
Details: 101.3 kPa, Liquid, Pycnometric method

mass density (293.15 K, x2 = 0.2) [kg/m3] | mass density (293.15 K, x2 = 0.25) [kg/m3] | mass density (303.15 K, x2 = 0.2) [kg/m3] | mass density (303.15 K, x2 = 0.25) [kg/m3] | mass density (313.15 K, x2 = 0.2) [kg/m3] | mass density (313.15 K, x2 = 0.25) [kg/m3] | mass density (323.15 K, x2 = 0.2) [kg/m3] | mass density (323.15 K, x2 = 0.25) [kg/m3] | Compound | mass density (293.15 K, x1 = 0.2) [kg/m3] | mass density (293.15 K, x1 = 0.25) [kg/m3] | mass density (303.15 K, x1 = 0.2) [kg/m3] | mass density (303.15 K, x1 = 0.25) [kg/m3] | mass density (313.15 K, x1 = 0.2) [kg/m3] | mass density (313.15 K, x1 = 0.25) [kg/m3] | mass density (323.15 K, x1 = 0.2) [kg/m3] | mass density (323.15 K, x1 = 0.25) [kg/m3] | mass density (293.15 K, x1 = 0.333) [kg/m3] | mass density (303.15 K, x1 = 0.333) [kg/m3] | mass density (313.15 K, x1 = 0.333) [kg/m3] | mass density (323.15 K, x1 = 0.333) [kg/m3]
 |  |  |  |  |  |  |  | C[N+](C)(C)CCO.[Cl-] [choline chloride] + OCCOCCO | 1120.3 ± 1 | 1122.4 ± 1 | 1113 ± 1 | 1117.9 ± 1 | 1108.9 ± 1 | 1113 ± 1 | 1103.2 ± 1 | 1108.3 ± 1 |  |  |  | 
 |  |  |  |  |  |  |  | C[N+](C)(C)CCO.[Cl-] [choline chloride] + Oc1ccccc1 | 1091.3 ± 1 | 1092.7 ± 1 | 1085.1 ± 1 | 1087.3 ± 1 | 1081.1 ± 1 | 1083.9 ± 1 | 1076 ± 1 | 1079.5 ± 1 | 1096.6 ± 1 | 1093.8 ± 1 | 1087.2 ± 1 | 1082.5 ± 1
1120.3 ± 1.1 | 1133.1 ± 1.1 | 1114.6 ± 1.1 | 1126.2 ± 1.1 | 1108.9 ± 1.1 | 1119.3 ± 1.1 | 1103.2 ± 1.1 | 1112.4 ± 1.1 | OCCOCCOCCO [triethylene glycol] + C[N+](C)(C)CCO.[Cl-] |  |  |  |  |  |  |  |  |  |  |  | 
